Results: the kinase profiling compilation of Christmann-Franck et al. (2016)
Where “and” joins values, the source holds several entries; their conditions need not be identical. Equal entries are not always repeated.

Experiments:
Test in all cases: KINOMEscan competition binding
Conditions in all cases: compound 10.0 µM
DYRK2 (human) = DYRK2 (human) (UniProt Q92630)
CSNK2A2 (human) = CSNK2A2 (human) (UniProt P19784)
HIPK3 (human) = HIPK3 (human) (UniProt Q9H422)
AKT3 (human) = AKT3 (human) (UniProt Q9Y243)
CDK3 (human) = CDK3 (human) (UniProt Q00526)
CDK3 (human), sequence (Q00526 whole entry, looked up): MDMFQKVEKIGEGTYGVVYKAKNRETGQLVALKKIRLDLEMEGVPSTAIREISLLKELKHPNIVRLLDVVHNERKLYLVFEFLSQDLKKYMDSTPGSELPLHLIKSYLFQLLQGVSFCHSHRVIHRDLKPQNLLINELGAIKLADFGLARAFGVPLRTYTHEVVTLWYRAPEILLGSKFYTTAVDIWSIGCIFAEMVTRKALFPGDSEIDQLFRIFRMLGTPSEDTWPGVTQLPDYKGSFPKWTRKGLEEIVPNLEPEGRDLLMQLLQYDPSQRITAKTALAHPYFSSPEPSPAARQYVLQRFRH

[1] = system: KIT (human), P10721 [V559D/T670I]
KIT (human), P10721 [V559D/T670I], sequence (P10721 whole entry V559D/T670I, looked up): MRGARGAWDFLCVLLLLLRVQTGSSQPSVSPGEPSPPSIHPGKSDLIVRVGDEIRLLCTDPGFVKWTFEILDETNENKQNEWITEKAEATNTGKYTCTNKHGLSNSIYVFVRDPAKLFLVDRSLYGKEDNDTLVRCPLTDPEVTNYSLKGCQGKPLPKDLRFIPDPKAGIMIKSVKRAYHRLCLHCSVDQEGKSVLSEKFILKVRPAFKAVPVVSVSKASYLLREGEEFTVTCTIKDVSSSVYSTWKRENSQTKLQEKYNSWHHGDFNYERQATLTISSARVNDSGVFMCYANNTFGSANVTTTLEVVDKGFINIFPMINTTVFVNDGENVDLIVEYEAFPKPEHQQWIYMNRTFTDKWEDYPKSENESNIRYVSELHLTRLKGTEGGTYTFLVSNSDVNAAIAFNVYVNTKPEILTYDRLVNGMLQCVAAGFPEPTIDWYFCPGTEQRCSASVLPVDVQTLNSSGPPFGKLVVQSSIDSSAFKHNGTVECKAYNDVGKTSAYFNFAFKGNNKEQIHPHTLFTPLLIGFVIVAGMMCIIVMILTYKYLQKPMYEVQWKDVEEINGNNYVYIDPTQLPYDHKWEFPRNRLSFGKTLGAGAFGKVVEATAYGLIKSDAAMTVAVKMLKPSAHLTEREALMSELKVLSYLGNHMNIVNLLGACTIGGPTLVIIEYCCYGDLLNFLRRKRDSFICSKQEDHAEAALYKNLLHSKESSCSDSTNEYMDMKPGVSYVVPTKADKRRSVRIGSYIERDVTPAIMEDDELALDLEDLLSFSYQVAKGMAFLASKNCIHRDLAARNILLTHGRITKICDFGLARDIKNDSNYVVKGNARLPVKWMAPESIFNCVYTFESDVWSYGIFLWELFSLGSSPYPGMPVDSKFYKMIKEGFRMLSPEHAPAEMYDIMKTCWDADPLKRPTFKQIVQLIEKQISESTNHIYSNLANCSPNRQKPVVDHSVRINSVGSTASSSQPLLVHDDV

CAMKK2 (human) = CAMKK2 (human) (UniProt Q96RR4)
CAMKK2 (human), sequence (Q96RR4 whole entry, looked up): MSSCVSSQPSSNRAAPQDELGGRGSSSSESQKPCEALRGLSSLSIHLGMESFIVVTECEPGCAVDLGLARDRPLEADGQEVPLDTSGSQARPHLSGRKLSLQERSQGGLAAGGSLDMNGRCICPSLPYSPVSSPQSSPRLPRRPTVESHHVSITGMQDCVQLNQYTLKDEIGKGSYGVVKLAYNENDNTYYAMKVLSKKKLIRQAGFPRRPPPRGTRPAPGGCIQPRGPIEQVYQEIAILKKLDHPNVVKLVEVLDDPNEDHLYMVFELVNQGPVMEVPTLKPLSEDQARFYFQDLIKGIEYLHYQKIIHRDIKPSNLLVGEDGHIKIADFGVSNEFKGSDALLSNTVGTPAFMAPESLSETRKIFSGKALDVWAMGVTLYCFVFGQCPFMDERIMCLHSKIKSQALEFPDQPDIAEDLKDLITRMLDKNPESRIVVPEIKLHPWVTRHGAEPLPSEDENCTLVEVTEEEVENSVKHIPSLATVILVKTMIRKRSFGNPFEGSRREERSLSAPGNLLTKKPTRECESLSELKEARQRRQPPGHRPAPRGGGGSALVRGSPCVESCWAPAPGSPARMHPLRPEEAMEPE

STK17A (human) = STK17A (human) (UniProt Q9UEE5)
CDKL3 (human) = CDKL3 (human) (UniProt Q8IVW4)
LIMK2 (human) = LIMK2 (human) (UniProt P53671)
LIMK2 (human), sequence (P53671 whole entry, looked up): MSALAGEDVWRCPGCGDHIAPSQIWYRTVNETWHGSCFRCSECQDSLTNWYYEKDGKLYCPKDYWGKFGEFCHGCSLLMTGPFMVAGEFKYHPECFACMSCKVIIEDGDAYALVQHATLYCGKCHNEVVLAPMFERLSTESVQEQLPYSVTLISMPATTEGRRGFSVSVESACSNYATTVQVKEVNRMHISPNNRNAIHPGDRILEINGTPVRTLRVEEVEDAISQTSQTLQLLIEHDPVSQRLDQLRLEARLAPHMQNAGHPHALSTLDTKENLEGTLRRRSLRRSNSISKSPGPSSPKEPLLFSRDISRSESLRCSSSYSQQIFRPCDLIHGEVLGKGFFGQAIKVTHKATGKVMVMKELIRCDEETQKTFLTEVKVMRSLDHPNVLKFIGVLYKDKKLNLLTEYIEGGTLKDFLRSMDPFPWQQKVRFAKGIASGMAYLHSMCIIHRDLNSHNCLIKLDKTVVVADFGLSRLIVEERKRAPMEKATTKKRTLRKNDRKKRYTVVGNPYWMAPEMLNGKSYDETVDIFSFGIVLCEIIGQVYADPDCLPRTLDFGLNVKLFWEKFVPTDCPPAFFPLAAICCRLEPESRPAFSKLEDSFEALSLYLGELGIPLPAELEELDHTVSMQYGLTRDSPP

PI4KB (human) = PI4KB (human) (UniProt Q9UBF8)
IGF1R (human) = IGF1R (human) (UniProt P08069)
IGF1R (human), sequence (P08069 whole entry, looked up): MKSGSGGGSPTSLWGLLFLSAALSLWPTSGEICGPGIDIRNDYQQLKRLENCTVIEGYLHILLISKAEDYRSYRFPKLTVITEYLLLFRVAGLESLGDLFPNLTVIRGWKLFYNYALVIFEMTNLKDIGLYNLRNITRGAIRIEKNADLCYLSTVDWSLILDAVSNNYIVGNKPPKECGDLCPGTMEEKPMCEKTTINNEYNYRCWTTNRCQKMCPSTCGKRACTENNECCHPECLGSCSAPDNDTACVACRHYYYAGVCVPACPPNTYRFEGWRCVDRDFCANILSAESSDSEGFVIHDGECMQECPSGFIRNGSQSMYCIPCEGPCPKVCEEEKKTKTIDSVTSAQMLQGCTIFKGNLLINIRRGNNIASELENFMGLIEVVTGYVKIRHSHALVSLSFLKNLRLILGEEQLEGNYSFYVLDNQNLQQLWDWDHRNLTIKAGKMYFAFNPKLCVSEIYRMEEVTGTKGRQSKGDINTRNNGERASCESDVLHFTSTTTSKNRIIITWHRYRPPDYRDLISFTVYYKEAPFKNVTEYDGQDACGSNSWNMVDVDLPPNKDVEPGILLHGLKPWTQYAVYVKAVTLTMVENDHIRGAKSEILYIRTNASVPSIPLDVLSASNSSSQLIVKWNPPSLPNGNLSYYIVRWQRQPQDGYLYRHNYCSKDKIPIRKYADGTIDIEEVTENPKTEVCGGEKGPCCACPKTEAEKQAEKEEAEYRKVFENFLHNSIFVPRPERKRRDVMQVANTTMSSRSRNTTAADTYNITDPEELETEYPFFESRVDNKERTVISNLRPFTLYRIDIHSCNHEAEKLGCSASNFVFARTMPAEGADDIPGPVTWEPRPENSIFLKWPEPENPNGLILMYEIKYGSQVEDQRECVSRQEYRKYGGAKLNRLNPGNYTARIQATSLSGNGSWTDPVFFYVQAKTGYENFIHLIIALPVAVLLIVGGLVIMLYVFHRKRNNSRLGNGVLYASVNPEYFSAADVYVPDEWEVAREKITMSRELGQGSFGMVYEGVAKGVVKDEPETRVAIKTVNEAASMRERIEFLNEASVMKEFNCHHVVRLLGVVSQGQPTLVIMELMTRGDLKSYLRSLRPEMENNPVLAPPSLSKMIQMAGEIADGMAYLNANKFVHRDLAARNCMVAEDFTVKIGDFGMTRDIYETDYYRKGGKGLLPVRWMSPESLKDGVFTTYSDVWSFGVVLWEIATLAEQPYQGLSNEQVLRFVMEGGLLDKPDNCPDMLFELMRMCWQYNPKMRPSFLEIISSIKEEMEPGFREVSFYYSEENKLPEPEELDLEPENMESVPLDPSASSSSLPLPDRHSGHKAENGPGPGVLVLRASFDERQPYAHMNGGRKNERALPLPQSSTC

TAOK1 (human) = TAOK1 (human) (UniProt Q7L7X3)
MAPK12 (human) = MAPK12 (human) (UniProt P53778)
MAPK12 (human), sequence (P53778 whole entry, looked up): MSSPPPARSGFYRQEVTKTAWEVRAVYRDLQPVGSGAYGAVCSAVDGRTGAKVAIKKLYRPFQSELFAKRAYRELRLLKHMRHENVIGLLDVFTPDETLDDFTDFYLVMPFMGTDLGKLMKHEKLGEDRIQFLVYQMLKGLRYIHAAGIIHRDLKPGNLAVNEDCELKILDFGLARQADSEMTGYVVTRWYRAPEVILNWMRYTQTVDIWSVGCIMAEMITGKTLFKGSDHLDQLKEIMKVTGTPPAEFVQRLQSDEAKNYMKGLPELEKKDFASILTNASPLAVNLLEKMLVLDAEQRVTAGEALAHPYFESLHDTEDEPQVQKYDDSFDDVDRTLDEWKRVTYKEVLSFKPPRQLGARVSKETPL

[2] = system: EGFR (human), P00533 [P753S; 747-752 del]
[3] = system: EGFR (human), P00533 [752-759 del]
[4] = system: EGFR (human), P00533 [G719C]
[5] = system: EGFR (human), P00533 [L858R]
CHEK2 (human) = CHEK2 (human) (UniProt O96017)
[6] = system: EGFR (human), P00533 [747-751 del / S ins]
EGFR (human) = EGFR (human) (UniProt P00533)
[7] = system: EGFR (human), P00533 [T790M/L858R]
[8] = system: EGFR (human), P00533 [746-750 del]
[9] = system: EGFR (human), P00533 [G719S]
RPS6KA3 KD1 (human) = RPS6KA3 KD1 (human) (UniProt P51812)
[10] = system: EGFR (human), P00533 [A750P; 747-749 del]
[11] = system: EGFR (human), P00533 [L861Q]

DYRK2 (human), sequence (Q92630 whole entry, looked up): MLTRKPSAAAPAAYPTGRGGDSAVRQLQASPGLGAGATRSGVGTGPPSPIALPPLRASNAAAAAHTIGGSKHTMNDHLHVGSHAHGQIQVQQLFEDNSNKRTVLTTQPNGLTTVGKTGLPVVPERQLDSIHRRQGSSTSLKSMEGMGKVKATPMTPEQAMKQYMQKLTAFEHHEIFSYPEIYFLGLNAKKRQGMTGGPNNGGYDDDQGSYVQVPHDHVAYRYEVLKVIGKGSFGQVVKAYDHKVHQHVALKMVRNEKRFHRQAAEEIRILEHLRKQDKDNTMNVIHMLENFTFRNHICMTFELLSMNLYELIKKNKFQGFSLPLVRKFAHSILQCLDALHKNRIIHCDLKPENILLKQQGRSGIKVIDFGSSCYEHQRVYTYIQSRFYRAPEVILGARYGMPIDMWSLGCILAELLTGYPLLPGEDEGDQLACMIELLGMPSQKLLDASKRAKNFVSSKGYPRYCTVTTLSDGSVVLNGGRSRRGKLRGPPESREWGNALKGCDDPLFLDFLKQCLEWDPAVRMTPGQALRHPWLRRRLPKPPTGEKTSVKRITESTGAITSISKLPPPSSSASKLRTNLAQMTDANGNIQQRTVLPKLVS

COc1ccc(CNC(=O)Nc2ncc([N+](=O)[O-])s2)cc1
kinase still bound, per cent of control (DYRK2 (human)): 68%
kinase still bound, per cent of control (CSNK2A2 (human)): 100%
kinase still bound, per cent of control (HIPK3 (human)): 100%
kinase still bound, per cent of control (AKT3 (human)): 92%
kinase still bound, per cent of control (CDK3 (human)): 68%
kinase still bound, per cent of control [1]: 86%
kinase still bound, per cent of control (CAMKK2 (human)): 100%
kinase still bound, per cent of control (STK17A (human)): 80%
kinase still bound, per cent of control (CDKL3 (human)): 76%
kinase still bound, per cent of control (LIMK2 (human)): 100%
kinase still bound, per cent of control (PI4KB (human)): 100%
kinase still bound, per cent of control (IGF1R (human)): 100%
kinase still bound, per cent of control (TAOK1 (human)): 85% and 100%

Cc1cnc(-c2cnc(NCCNc3ccc(C#N)cn3)nc2-c2ccc(Cl)cc2Cl)[nH]1
kinase still bound, per cent of control (DYRK2 (human)): 68%
kinase still bound, per cent of control (CSNK2A2 (human)): 100%
kinase still bound, per cent of control (HIPK3 (human)): 100%
kinase still bound, per cent of control (AKT3 (human)): 100%
kinase still bound, per cent of control (CDK3 (human)): 89%
kinase still bound, per cent of control (MAPK12 (human)): 100%
kinase still bound, per cent of control [1]: 91%
kinase still bound, per cent of control (CAMKK2 (human)): 100%
kinase still bound, per cent of control (STK17A (human)): 85%
kinase still bound, per cent of control (CDKL3 (human)): 52%
kinase still bound, per cent of control (LIMK2 (human)): 100%
kinase still bound, per cent of control (PI4KB (human)): 93%
kinase still bound, per cent of control (IGF1R (human)): 100%

Cn1cc(C2=C(c3ccc(Cl)cc3Cl)C(=O)NC2=O)c2ccccc21
kinase still bound, per cent of control (DYRK2 (human)): 83%
kinase still bound, per cent of control [2]: 99%
kinase still bound, per cent of control (CSNK2A2 (human)): 99%
kinase still bound, per cent of control (HIPK3 (human)): 56%
kinase still bound, per cent of control [3]: 94%
kinase still bound, per cent of control [4]: 100%
kinase still bound, per cent of control [5]: 100%
kinase still bound, per cent of control (CHEK2 (human)): 90%
kinase still bound, per cent of control [6]: 91%
kinase still bound, per cent of control (EGFR (human)): 100%
kinase still bound, per cent of control (AKT3 (human)): 100%
kinase still bound, per cent of control (CDK3 (human)): 14%
kinase still bound, per cent of control (MAPK12 (human)): 100%
kinase still bound, per cent of control [7]: 97%
kinase still bound, per cent of control [1]: 92%
kinase still bound, per cent of control [8]: 77%
kinase still bound, per cent of control (CAMKK2 (human)): 72%
kinase still bound, per cent of control (STK17A (human)): 16%
kinase still bound, per cent of control (CDKL3 (human)): 100%
kinase still bound, per cent of control (LIMK2 (human)): 96%
kinase still bound, per cent of control [9]: 99%
kinase still bound, per cent of control (RPS6KA3 KD1 (human)): 100%
kinase still bound, per cent of control (PI4KB (human)): 94%
kinase still bound, per cent of control [10]: 85%
kinase still bound, per cent of control [11]: 83%
kinase still bound, per cent of control (IGF1R (human)): 95%
kinase still bound, per cent of control (TAOK1 (human)): 90% and 98%

O=C1Nc2cc(Br)ccc2/C1=C1/Nc2ccccc2/C1=N\O
kinase still bound, per cent of control [2]: 38%
kinase still bound, per cent of control (CSNK2A2 (human)): 8%
kinase still bound, per cent of control (HIPK3 (human)): 12%
kinase still bound, per cent of control [3]: 29%
kinase still bound, per cent of control [4]: 39%
kinase still bound, per cent of control [5]: 32%
kinase still bound, per cent of control (CHEK2 (human)): 38%
kinase still bound, per cent of control [6]: 24%
kinase still bound, per cent of control (EGFR (human)): 44%
kinase still bound, per cent of control (AKT3 (human)): 100%
kinase still bound, per cent of control (CDK3 (human)): 75%
kinase still bound, per cent of control (MAPK12 (human)): 55%
kinase still bound, per cent of control [7]: 53%
kinase still bound, per cent of control [1]: 0%
kinase still bound, per cent of control [8]: 13%
kinase still bound, per cent of control (CAMKK2 (human)): 37%
kinase still bound, per cent of control (STK17A (human)): 0%
kinase still bound, per cent of control (CDKL3 (human)): 82%
kinase still bound, per cent of control (LIMK2 (human)): 92%
kinase still bound, per cent of control [9]: 35%
kinase still bound, per cent of control (RPS6KA3 KD1 (human)): 80%
kinase still bound, per cent of control (PI4KB (human)): 39%
kinase still bound, per cent of control [10]: 17%
kinase still bound, per cent of control [11]: 34%
kinase still bound, per cent of control (IGF1R (human)): 83%
